# Measured values published in patent publication US20240285688A1, “Extensive whey protein hydrolysate with tolerogenic peptides” (N.V. Nutricia, priority 2019, published 2024).
# Peptide text beside a SMILES is read from it.
# Experiment: Presence of tolerogenic betalactoglobulin peptides in feed, retentate and permeate of membrane ultrafiltration (micro LC-MS ESI MS2)
# Type: physicochemical
# Conditions: Example 3: urea (8 M) added after hydrolysis and before ultrafiltration
# Experimental: In a Multifors reactor (Infors HT) 500 gram of whey protein powder (WPC83, Arla Foods, with about 80% whey protein) was dissolved in water at a final concentration of about 4 wt % at a temperature of about 75° C., giving a protein concentration of about 3.2 wt %. After dissolving the mixture was cooled to 58° C. and the pH was adjusted to neutral (pH 7-8). Proteolytic enzymes were added (Trypsin, Neova Technologies Inc) to a concentration of 33 mg/100 g solution and hydrolysis took place for about 105 min under continuous stirring. During hydrolysis the pH was kept constant. After hydrolysis the mixture was quickly cooled to 4° C.
# Next the mixture of whey protein hydrolysate and proteolytic enzymes was filtrated. 200 ml of the mixture (the feed) was filtrated for 20 minutes on a MMS Triple System membrane filtration unit (MMS AG Membrane Systems) provided with an ultrafiltration membrane from Koch (Koch: HFK-131, a flat sheet polyethersulfone ultrafiltration membrane with a molecular weight cut off of 10 kDa) under a pressure of 8 bars. A one-layer filtration setup was used and the retentate was circulated during filtration. Each membrane was used only once to promote reproducibility. The filtration cooling system was set to 15° C. The permeate was weighted, MMS filtration software was used for the registering of the permeate throughput. Samples were taken of the mixture before membrane filtration (the feed), and of the permeate and retentate after the membrane filtration step. About 93% of permeate (wt % of total feed) was produced comprising about 85 wt % of peptides (wt % of the peptides in the feed). Samples were stored at −50° C. for further analysis.
# The presence of tolerogenic betalactoglobulin peptides in the samples was analyzed according to Gouw et al., 2018, Clin. Exp. Allergy 48:[…], with the modification that instead of nanoLC-ESI MS2, micro LC-MS ESI MS2 was used. The presence of 5 specific peptides was tested (region overlapping with the 13-48 AA acid region of betalactoglobulin in bold):
# The process of example 1 was repeated. The only difference was that Citrem (Grinsted® Citrem, DuPont) was added at an amount of about 3.6 gram before the pH adjustment and the addition of the proteolytic enzymes. […]
# The process of example 2a was repeated, the only difference being that instead of the emulsifier, 51 gram of urea (source Merck) was dissolved per 100 g water (8 M) and added after the hydrolysis step and before ultrafiltration. […] All peptides were detected in the retentate and feed, and peptides 1, 3, 4 and 5 of example 1 (i.e. SEQ ID NOs 66, 68, 69 and 70 with X=L) were detected in the permeate, in an amount of about 1-10 wt. % of the concentration of these peptides in the feed. […]
row,presence of the tolerogenic peptides in the permeate,Compound
1,detected,CC[C@H](C)[C@H](NC(=O)[C@H](CC(=O)O)NC(=O)[C@H](CC(C)C)NC(=O)CNC(=O)[C@H](CCCCN)NC(=O)[C@H](CCSC)NC(=O)[C@@H](NC(=O)[C@H](CCC(N)=O)NC(=O)[C@@H](NC(=O)[C@@H](NC(=O)[C@@H](NC(=O)[C@@H](N)CC(C)C)[C@@H](C)CC)C(C)C)[C@@H](C)O)[C@@H](C)O)C(=O)N[C@@H](CCC(N)=O)C(=O)N[C@@H](CCCCN)C(=O)N[C@H](C(=O)N[C@@H](C)C(=O)NCC(=O)N[C@H](C(=O)N[C@@H](Cc1c[nH]c2ccccc12)C(=O)N[C@@H](Cc1ccc(O)cc1)C(=O)N[C@@H](CO)C(=O)N[C@@H](CC(C)C)C(=O)N[C@@H](C)C(=O)N[C@@H](CCSC)C(=O)N[C@@H](C)C(=O)N[C@@H](C)C(=O)N[C@@H](CO)C(=O)O)[C@@H](C)O)C(C)C [Peptide 1] (H-LIVTQTMKGLDIQKVAGTWYSLAMAAS-OH; N-terminus and C-terminus assumed)
2,detected,CC[C@H](C)[C@H](NC(=O)[C@H](CC(=O)O)NC(=O)[C@H](CC(C)C)NC(=O)CNC(=O)[C@H](CCCCN)NC(=O)[C@H](CCSC)NC(=O)[C@@H](N)[C@@H](C)O)C(=O)N[C@@H](CCC(N)=O)C(=O)N[C@@H](CCCCN)C(=O)N[C@H](C(=O)N[C@@H](C)C(=O)NCC(=O)N[C@H](C(=O)N[C@@H](Cc1c[nH]c2ccccc12)C(=O)N[C@@H](Cc1ccc(O)cc1)C(=O)N[C@@H](CO)C(=O)N[C@@H](CC(C)C)C(=O)N[C@@H](C)C(=O)N[C@@H](CCSC)C(=O)N[C@@H](C)C(=O)N[C@@H](C)C(=O)N[C@@H](CO)C(=O)N[C@@H](CC(=O)O)C(=O)N[C@H](C(=O)N[C@@H](CO)C(=O)N[C@@H](CC(C)C)C(=O)N[C@@H](CC(C)C)C(=O)O)[C@@H](C)CC)[C@@H](C)O)C(C)C [Peptide 4] (H-TMKGLDIQKVAGTWYSLAMAASDISLL-OH; N-terminus and C-terminus assumed)
3,detected,CC[C@H](C)[C@H](NC(=O)[C@H](CC(=O)O)NC(=O)[C@H](CC(C)C)NC(=O)CNC(=O)[C@H](CCCCN)NC(=O)[C@H](CCSC)NC(=O)[C@@H](N)[C@@H](C)O)C(=O)N[C@@H](CCC(N)=O)C(=O)N[C@@H](CCCCN)C(=O)N[C@H](C(=O)N[C@@H](C)C(=O)NCC(=O)N[C@H](C(=O)N[C@@H](Cc1c[nH]c2ccccc12)C(=O)N[C@@H](Cc1ccc(O)cc1)C(=O)N[C@@H](CO)C(=O)N[C@@H](CC(C)C)C(=O)N[C@@H](C)C(=O)N[C@@H](CCSC)C(=O)N[C@@H](C)C(=O)N[C@@H](C)C(=O)N[C@@H](CO)C(=O)N[C@@H](CC(=O)O)C(=O)N[C@H](C(=O)N[C@@H](CO)C(=O)N[C@@H](CC(C)C)C(=O)N[C@@H](CC(C)C)C(=O)N[C@@H](CC(=O)O)C(=O)N[C@@H](C)C(=O)N[C@@H](CCC(N)=O)C(=O)O)[C@@H](C)CC)[C@@H](C)O)C(C)C [Peptide 3] (H-TMKGLDIQKVAGTWYSLAMAASDISLLDAQ-OH; N-terminus and C-terminus assumed)
4,detected,CC[C@H](C)[C@H](NC(=O)[C@H](CC(=O)O)NC(=O)[C@H](CC(C)C)NC(=O)CNC(=O)[C@H](CCCCN)NC(=O)[C@H](CCSC)NC(=O)[C@@H](NC(=O)[C@H](CCC(N)=O)NC(=O)[C@@H](NC(=O)[C@@H](NC(=O)[C@@H](NC(=O)[C@@H](N)CC(C)C)[C@@H](C)CC)C(C)C)[C@@H](C)O)[C@@H](C)O)C(=O)N[C@@H](CCC(N)=O)C(=O)N[C@@H](CCCCN)C(=O)N[C@H](C(=O)N[C@@H](C)C(=O)NCC(=O)N[C@H](C(=O)N[C@@H](Cc1c[nH]c2ccccc12)C(=O)N[C@@H](Cc1ccc(O)cc1)C(=O)N[C@@H](CO)C(=O)N[C@@H](CC(C)C)C(=O)N[C@@H](C)C(=O)N[C@@H](CCSC)C(=O)N[C@@H](C)C(=O)N[C@@H](C)C(=O)N[C@@H](CO)C(=O)N[C@@H](CC(=O)O)C(=O)N[C@H](C(=O)N[C@@H](CO)C(=O)N[C@@H](CC(C)C)C(=O)N[C@@H](CC(C)C)C(=O)O)[C@@H](C)CC)[C@@H](C)O)C(C)C [Peptide 5] (H-LIVTQTMKGLDIQKVAGTWYSLAMAASDISLL-OH; N-terminus and C-terminus assumed)
